“Also recorded” adds a separate entry of the source. Read-outs that look alike come from different tables or passages of the source.
Tests used:
[1] = cited from earlier work
integrin αVβ3 [2] = molecular target: T1, integrin αVβ3 (Homo sapiens, UniProt P05106+P06756); test: biochemical; format: binding; conditions: for inhibition: at 22 mM (highest concentration), read-out: Maximal Inhibition Achieved (converted)
T1 construct: purchased R&D Systems Inc. (Minneapolis, MN, USA)

integrin αllbβ3 = molecular target: T2, integrin αllbβ3 (Homo sapiens, UniProt P05106+P08514); test: biochemical; format: binding
T2 construct: purchased Enzyme Research Laboratories Ltd. (Swansea, UK)
T2 sequence (P08514 32-887 limits assumed): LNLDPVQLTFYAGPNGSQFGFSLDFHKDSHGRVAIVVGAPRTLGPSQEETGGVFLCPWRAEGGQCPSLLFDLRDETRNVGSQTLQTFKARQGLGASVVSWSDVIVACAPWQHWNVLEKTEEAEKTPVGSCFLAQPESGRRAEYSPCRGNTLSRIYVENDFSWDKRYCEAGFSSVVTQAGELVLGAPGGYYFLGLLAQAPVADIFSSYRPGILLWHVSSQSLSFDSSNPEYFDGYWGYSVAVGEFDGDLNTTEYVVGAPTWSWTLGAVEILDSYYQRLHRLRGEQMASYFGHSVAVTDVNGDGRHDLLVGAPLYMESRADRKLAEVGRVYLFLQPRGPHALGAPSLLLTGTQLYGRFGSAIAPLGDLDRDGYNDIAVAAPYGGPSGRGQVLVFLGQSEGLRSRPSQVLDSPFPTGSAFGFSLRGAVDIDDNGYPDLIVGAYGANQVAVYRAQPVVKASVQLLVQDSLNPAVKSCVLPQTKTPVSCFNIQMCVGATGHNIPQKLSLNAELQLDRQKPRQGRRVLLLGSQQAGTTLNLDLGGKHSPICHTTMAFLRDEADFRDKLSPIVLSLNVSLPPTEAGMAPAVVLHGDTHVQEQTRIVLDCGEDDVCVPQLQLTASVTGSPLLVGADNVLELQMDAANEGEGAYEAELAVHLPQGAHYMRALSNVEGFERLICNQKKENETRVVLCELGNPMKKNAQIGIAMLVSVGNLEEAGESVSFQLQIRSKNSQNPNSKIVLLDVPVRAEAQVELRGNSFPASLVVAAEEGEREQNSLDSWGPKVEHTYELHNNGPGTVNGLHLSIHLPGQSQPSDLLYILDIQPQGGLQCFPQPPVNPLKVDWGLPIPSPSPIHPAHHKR
T2 sequence (P08514 891-1039 partner limits assumed): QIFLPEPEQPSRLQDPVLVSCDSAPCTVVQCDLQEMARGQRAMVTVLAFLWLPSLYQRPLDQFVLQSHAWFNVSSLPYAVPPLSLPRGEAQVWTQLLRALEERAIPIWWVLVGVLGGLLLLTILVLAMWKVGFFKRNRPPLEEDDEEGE
T2 sequence (P05106 27-788): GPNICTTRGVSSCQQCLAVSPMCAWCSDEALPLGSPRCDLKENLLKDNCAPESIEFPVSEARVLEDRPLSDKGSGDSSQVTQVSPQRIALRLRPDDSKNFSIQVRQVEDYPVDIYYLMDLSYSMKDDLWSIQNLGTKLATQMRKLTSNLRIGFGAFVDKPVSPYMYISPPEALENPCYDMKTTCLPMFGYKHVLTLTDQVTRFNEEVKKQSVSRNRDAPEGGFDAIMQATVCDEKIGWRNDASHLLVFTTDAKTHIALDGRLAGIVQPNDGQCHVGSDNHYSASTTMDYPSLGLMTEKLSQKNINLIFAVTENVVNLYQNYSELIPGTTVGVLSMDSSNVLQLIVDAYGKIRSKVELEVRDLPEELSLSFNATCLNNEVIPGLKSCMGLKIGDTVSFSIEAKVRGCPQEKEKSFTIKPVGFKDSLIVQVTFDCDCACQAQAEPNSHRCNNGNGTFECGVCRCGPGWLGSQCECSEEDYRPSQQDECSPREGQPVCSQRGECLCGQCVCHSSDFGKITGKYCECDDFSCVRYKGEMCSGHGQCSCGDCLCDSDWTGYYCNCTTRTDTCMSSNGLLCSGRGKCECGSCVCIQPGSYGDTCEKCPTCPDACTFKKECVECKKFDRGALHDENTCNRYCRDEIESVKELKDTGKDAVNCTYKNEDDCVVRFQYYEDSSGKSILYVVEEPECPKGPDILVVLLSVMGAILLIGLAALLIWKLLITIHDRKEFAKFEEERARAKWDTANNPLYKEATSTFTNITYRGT

integrin α5β1 = molecular target: T3, integrin α5β1 (Homo sapiens, UniProt P05556+P08648); test: biochemical; format: binding; conditions: for inhibition: at 22 mM (highest concentration), read-out: Maximal Inhibition Achieved (converted)
T3 construct: purchased R&D Systems Inc. (Minneapolis, MN, USA)

integrin αVβ3 [3] = molecular target: T1, integrin αVβ3; test: biochemical; format: binding; conditions: for inhibition: read-out: Maximal Inhibition Achieved (converted)
[4] = set-up: method as in earlier work; conditions: not marked *; octanol/water; cited from earlier work
integrin αVβ3 [5] = molecular target: T1, integrin αVβ3; conditions: at 11 mM; previously developed assay; cited from earlier work
MC3T3-E1 cells = conditions: biosensoric measurement, concentration-dependent, via blocking RGD-specific integrins; cited from earlier work
integrin αVβ3 [6] = molecular target: T1, integrin αVβ3; format: binding; conditions: immobilized SARS-CoV-2 S-protein; maximal inhibition, range up to 22 mM
[7] = integrin αVβ3, immobilized vitronectin
[8] = integrin αVβ3, immobilized vitronectin, ligand range 0.1-22 mM
[9] = integrin αllbβ3, immobilized fibrinogen, ligand range 0.1-22 mM
[10] = integrin α5β1, immobilized RGD polymer
[11] = integrin α5β1, immobilized RGD polymer, ligand range 0.1-22 mM
[12] = integrin αVβ3, immobilized RGD polymer, ligand range 0.1-22 mM
[13] = integrin αVβ3, immobilized RGD polymer, at 22 mM (highest concentration)
[14] = integrin αllbβ3, immobilized fibrinogen, at 22 mM, activation = higher absorbance than negative control, n. d. = not detected

T1 sequence (P06756 31-992): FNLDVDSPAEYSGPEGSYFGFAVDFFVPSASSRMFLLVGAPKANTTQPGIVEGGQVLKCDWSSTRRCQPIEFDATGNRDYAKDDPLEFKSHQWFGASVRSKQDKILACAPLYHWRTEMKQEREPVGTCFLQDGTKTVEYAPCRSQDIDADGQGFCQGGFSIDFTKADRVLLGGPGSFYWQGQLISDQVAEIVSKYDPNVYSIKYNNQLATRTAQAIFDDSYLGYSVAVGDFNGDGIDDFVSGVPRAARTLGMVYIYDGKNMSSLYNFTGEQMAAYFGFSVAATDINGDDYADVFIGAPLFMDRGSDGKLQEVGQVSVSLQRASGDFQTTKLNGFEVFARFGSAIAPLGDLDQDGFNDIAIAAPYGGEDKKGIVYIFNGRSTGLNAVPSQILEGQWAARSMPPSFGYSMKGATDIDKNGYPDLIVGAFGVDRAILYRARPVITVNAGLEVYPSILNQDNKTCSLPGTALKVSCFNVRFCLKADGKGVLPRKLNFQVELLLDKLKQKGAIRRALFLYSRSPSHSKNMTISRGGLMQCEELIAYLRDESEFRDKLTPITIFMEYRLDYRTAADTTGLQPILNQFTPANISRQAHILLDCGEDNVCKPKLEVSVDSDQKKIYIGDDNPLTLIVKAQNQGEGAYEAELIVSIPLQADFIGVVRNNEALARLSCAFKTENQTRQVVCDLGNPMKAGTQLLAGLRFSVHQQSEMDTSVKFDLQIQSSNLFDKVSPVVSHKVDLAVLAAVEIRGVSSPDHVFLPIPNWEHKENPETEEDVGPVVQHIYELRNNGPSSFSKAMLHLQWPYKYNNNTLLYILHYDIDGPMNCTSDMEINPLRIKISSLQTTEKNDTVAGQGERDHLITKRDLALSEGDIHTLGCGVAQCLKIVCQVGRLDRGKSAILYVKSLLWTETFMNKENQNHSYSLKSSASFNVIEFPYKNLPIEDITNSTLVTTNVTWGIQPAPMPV
T1 sequence (P05106 27-718): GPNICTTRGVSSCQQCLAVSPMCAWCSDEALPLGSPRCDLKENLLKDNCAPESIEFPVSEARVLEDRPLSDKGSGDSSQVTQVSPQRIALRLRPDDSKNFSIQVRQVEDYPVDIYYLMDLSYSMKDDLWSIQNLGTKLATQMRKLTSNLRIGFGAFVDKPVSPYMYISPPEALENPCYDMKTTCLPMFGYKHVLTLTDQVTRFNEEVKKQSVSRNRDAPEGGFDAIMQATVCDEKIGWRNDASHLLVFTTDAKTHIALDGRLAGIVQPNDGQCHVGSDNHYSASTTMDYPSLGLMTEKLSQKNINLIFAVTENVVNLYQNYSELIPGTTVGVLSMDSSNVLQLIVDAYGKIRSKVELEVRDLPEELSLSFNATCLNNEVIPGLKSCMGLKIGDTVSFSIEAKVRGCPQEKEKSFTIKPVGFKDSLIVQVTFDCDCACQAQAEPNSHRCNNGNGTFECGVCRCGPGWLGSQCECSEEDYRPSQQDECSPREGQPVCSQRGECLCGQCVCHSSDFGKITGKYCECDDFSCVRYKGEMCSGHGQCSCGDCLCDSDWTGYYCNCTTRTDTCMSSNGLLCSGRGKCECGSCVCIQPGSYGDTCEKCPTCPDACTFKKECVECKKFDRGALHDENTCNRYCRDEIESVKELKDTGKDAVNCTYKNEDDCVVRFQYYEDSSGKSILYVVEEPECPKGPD

Molecule	inhibition (integrin αVβ3 [2]; [7])	IC50 (integrin αVβ3 [2]; [8])	IC50 (integrin αllbβ3; [9])	inhibition (integrin α5β1; [10])	IC50 (integrin α5β1; [11])	IC50 (integrin αVβ3 [3]; [12])	inhibition (integrin αVβ3 [3]; [13])	further results
CC(=O)N(CC(=O)O)CP(=O)(O)O [N-acetylglyphosate]	47.5%	> 22 mM	> 22 mM	15%	> 22 mM	> 22 mM	–	Water Solubility ([1]; temperature or pH not given): slight; inhibition at 22000 µM (integrin αVβ3 [3]; integrin αVβ3, immobilized RGD polymer, at 22 mM (highest concentration), read-out: Maximal Inhibition Achieved): 40.6%
Glyphosate isopropylammonium salt	–	–	–	–	–	–	–	Water Solubility ([1]; temperature or pH not given): 1050 g/L; Clog Po/w [4]: −4.16
NCC(=O)O [Glycine]	–	–	–	–	–	–	–	IC50 (integrin αVβ3 [2]): > 22 mM; IC50 (integrin αllbβ3): > 22 mM; IC50 (integrin α5β1): > 22 mM; Maximal Inhibition Achieved (integrin α5β1): >22 (22.1 ± 3.3%); IC50 (integrin αVβ3 [3]): > 22 mM
O=C(O)CNCC(=O)O [Iminodiacetic acid]	52.4%	11.5 ± 1.5 mM	> 22 mM	8%	> 22 mM	> 22 mM	24.6%	Water Solubility ([1]; 5 °C): 24.3 (5 °C) g/L
NCP(=O)(O)O [Aminomethylphosphonic acid (AMPA), aminomethylphosphonic acid]	75.3%	1.5 ± 0.4 mM	> 22 mM	44.8%	> 22 mM	1.3 ± 0.2 mM	95.9%	Water Solubility ([1]; 20 °C): 56 (20 °C) g/L; Maximal Inhibition Achieved (integrin αllbβ3; [14]): activation; Maximal Inhibition Achieved (integrin αllbβ3; integrin αllbβ3, immobilized fibrinogen, at 22 mM, activation = higher absorbance than negative control, n. d. = not detected, listed as AMPA): activation; also recorded: activated
CNCC(=O)O [Sarcosine]	37.9%	> 22 mM	> 22 mM	13.4%	> 22 mM	> 22 mM	35%	Water Solubility ([1]; 20 °C): 89.1 (20 °C) g/L; Clog Po/w [4]: −3.2
O=C(O)CNCP(=O)(O)O [Glyphosate, N-(phosphonomethyl)glycine]	44.8%	> 22 mM	> 22 mM	85.7%	9.7 ± 3.2 mM	2.7 ± 0.5 mM	100%	Inhibition of RGD-binding capability of αVβ3 integrin (integrin αVβ3 [5]): 96.3 ± 3.2%; Water Solubility ([1]; pH 7.0): 157 g/L; inhibition (integrin αllbβ3; integrin αllbβ3, immobilized fibrinogen, at 22 mM, activation = higher absorbance than negative control, n. d. = not detected, read-out: Maximal Inhibition Achieved): 40.2%; Adhesion of MC3T3-E1 cells to RGD motif (MC3T3-E1 cells): significantly reduced; Inhibition of binding of αVβ3 to S-protein (integrin αVβ3 [6]): 35.6 ± 4.4%
CC(=O)NCC(=O)O [Acetylglycine]	58.5%	9.2 ± 1 mM	> 22 mM	98.9%	5.8 ± 0.9 mM	> 22 mM	46.8%	Maximal Inhibition Achieved (integrin αllbβ3; [14]): activation; Maximal Inhibition Achieved (integrin αllbβ3; integrin αllbβ3, immobilized fibrinogen, at 22 mM, activation = higher absorbance than negative control, n. d. = not detected, listed as acetylglycine): high activation
